{"source": "patent US20090018136A1", "about": "“METHODS AND COMPOSITIONS FOR THE TREATMENT OF VASCULAR DISEASE” (priority 2005, published 2009)", "key": {"[1]": {"test_system": "coronary blood flow velocity", "settings": "BH4 infused during angiography, patients with endothelial dysfunction; cited from earlier work"}, "[2]": {"test_system": "hypertensive patients", "experiment": "Adverse events in Study 1 and Study 2 of oral BH4", "format": "in vivo, human", "settings": "either study", "source_text": "Subjects between the ages of 18 and 75 years were recruited if they had uncontrolled hypertension on traditional stable anti-hypertensive therapy (BP≧135/85), or newly diagnosed hypertension (BP≧140/90). Patients were continued on their current anti-hypertensive therapy which remained unchanged. The criteria for exclusion were: female subjects with childbearing potential, history of recently symptomatic coronary or peripheral vascular disease, known secondary causes for hypertension, severe uncontrolled hypertension (BP>180 mmHg systolic and/or 110 mmHg diastolic), severe co-morbid conditions which would limit life expectancy to less than 6 months, renal or hepatic dysfunction, alteration of any concomitant anti-hypertensive therapy within the last 6 weeks, and any bleeding disorders. BH4 powder was obtained from Schircks Laboratories (Jona, Switzerland). BH4 when administered with vitamin C was compounded with vitamin C at a ratio of 1 mg of vitamin C/1 mg BH4 into appropriate sized capsules. Subjects were advised to keep the pills in a freezer or refrigerator.\nOf the 20 subjects who qualified for participation, 4 were excluded during the run-in phase because of inability to return for follow-up appointments. There were 6 male subjects, mean age 59.5±8.3 years. […] Mean blood pressure was calculated as: (SBP+2×DBP)/3. […]"}, "[3]": {"settings": "patients with Type II diabetes and coronary heart disease compared to control subjects; cited from earlier work"}, "[4]": {"test_system": "coronary vessel", "settings": "in vivo; cited from earlier work"}, "[5]": {"test_system": "beagles", "settings": "dog, in vivo, po, 100 mg/kg", "description": "This study evaluated the cardiovascular effects of high doses of 6R-BH4 in combination with the PDE5 inhibitor sildenafil citrate in vivo. Eight male research nonnaïve and naïve purebred beagles were dosed in a double Latin square crossover design as described in the following table. All animals were dosed by oral gavage. Test articles were administered at a dose volume of 5 mL/kg (for a total volume of 10 mL/kg for the combination dose); control animals were dosed at a dose volume of 10 mL/kg. 6R-BH4 (sapropterin dihydrochloride) provided as 300 mg tablets (100 mg active 6R-BH4/tablet) stored at room temperature with desiccant.\nAt initiation of treatment, the animals were approximately 7 to 10 months old, and their body weights prior to dosing ranged from 7.8 to 12.0 kg.\nAt least 2 weeks prior to initiation of treatment, animals were fasted overnight, anesthetized, and an electrocardiogram (ECG) and blood pressure transmitter were implanted into the abdomen and sutured to the abdominal wall. The blood pressure catheter was placed in an artery and advanced to the abdominal aorta. Animals were checked twice daily (a.m. and p.m.) for mortality, abnormalities, and signs of pain and distress. Additional findings were recorded as observed.\nDetailed observations were taken three times during the predose phase (including the day before dosing) and on Days 3 and 10 of the dosing phase. For each dosing day, ECG and pressure measurements were recorded for at least 90 minutes prior to dosing, continuously for at least 8 hours after dosing, and then for one period of at least 15 minutes in duration each hour through at least 24 hours postdose. Blood pressure measurements included systolic, diastolic, and mean arterial pressures and pulse pressure (systolic-diastolic). […]\nQuantitative evaluation of ECG measurements, including RR interval, QT, and rate-corrected QT (QTc, using Fridericia's method), were done.\nPositive inotropic effects (+dP/dtmax) and heart rate were calculated from a left ventricular pressure signal predose and approximately 2, 4, 8, 12, and 24 hours postdose. […]"}, "[6]": {"test_system": "patients with poorly controlled hypertension", "settings": "cited from earlier work"}, "[7]": {"test_system": "forearm blood flow", "settings": "patients with diabetes or hypercholesterolemia but not normal subjects; cited from earlier work"}}}
{"smiles": "C[C@H](O)[C@H](O)[C@H]1CNc2nc(N)[nH]c(=O)c2N1", "note": "[BH4, tetrahydrobiopterin]", "values": [{"measurement": "abnormal vasoconstriction to acetylcholine", "setting": "[1]", "value": "prevented"}, {"measurement": "adverse events", "setting": "[2]", "value": "no significant adverse events"}, {"measurement": "insulin sensitivity", "setting": "[3]", "value": "increases"}, {"measurement": "coronary vessel flow", "setting": "[4]", "value": "increased"}, {"measurement": "effect on any of the cardiovascular parameters measured", "setting": "[5]", "value": "No effect"}, {"measurement": "blood pressure after cessation of therapy", "setting": "[6]; 6 weeks after cessation", "value": "returned to baseline values"}, {"measurement": "FMD following withdrawal", "setting": "[6]; after 1 week following withdrawal", "value": "returned to baseline"}, {"measurement": "FMD", "setting": "[6]; after 8 weeks of oral BH4 (5 mg/kg/d, 10 mg/kg/d), eight patients", "value": "increased significantly"}, {"measurement": "treatment time after which blood pressure reduction was significant", "setting": "[6]; human, in vivo", "value": 3, "unit": "weeks"}, {"measurement": "systolic and diastolic pressures", "setting": "[6]; oral BH4 5 or 10 mg/kg/d over 8 weeks", "value": "significantly reduced"}, {"measurement": "NO-mediated effects on forearm blood flow", "setting": "[7]", "value": "augment"}]}
